Results published in ChEMBL document CHEMBL1201862, “PubChem BioAssay data set” (2004).
Active and inactive are the calls of the source.

Legend:
Assay type in all cases: functional
[1] = molecular target: T1, Aurora kinase A (Homo sapiens, UniProt O14965);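 also: value from the Navigating the Kinome kinase panel profiling, panel entry STK6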
T1 sequence (O14965 whole entry): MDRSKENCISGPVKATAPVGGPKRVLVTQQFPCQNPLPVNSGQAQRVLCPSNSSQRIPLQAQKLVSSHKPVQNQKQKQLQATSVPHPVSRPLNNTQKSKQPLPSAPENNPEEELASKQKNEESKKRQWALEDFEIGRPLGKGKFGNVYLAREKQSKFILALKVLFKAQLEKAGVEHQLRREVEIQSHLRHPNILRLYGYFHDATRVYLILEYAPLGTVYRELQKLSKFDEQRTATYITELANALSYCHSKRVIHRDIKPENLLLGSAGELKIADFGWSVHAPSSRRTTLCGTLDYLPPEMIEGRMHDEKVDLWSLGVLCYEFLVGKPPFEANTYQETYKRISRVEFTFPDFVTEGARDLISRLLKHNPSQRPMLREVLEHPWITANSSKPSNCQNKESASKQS

[2] = molecular target: Vascular endothelial growth factor receptor 1 (Homo sapiens, UniProt P17948);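 also: measured within a kinome-wide profiling panel, FLT1 as the panel member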
[3] = molecular target: Leukocyte tyrosine kinase receptor (Homo sapiens, UniProt P29376); assay: Navigating the Kinome. Panel member name: LTK
[4] = molecular target: Tyrosine-protein kinase Fyn (Homo sapiens, UniProt P06241)
[5] = molecular target: Fibroblast growth factor receptor 1 (Homo sapiens, UniProt P11362)
[6] = molecular target: cAMP-dependent protein kinase catalytic subunit alpha (Homo sapiens, UniProt P17612)
[7] = molecular target: Vascular endothelial growth factor receptor 2 (Homo sapiens, UniProt P35968)
[8] = molecular target: Death-associated protein kinase 3 (Homo sapiens, UniProt O43293);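 also: measured as one member of a kinome-wide profiling panel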
[9] = molecular target: T2, Tyrosine-protein kinase receptor TYRO3 (Homo sapiens, UniProt Q06418);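 also: TYRO3 value obtained as one member of a kinome-wide profiling panel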
T2 sequence (Q06418 whole entry): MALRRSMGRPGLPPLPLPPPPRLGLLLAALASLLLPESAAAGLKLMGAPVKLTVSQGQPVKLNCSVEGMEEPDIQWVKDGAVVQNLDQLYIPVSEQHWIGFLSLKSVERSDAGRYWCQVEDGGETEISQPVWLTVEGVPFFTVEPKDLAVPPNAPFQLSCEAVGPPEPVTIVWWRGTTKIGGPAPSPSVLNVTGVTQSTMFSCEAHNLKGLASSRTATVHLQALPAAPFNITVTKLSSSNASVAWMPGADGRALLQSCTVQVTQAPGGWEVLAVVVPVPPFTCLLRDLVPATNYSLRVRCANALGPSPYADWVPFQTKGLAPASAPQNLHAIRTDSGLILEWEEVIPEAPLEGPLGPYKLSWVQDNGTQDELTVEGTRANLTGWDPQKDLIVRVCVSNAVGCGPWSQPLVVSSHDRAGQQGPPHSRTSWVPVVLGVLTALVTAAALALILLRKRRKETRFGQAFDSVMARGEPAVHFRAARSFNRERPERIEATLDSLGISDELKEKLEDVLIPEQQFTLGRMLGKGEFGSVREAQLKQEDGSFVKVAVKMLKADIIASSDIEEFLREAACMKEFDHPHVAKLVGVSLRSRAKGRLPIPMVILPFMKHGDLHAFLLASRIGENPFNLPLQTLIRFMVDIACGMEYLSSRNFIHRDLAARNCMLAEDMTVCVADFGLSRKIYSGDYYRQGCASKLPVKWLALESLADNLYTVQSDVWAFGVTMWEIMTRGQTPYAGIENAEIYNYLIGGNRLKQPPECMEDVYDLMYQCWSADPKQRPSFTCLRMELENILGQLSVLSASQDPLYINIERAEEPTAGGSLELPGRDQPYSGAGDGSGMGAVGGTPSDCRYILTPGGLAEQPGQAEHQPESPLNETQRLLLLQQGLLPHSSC

[10] = molecular target: T3, Activin receptor type-1 (Homo sapiens, UniProt Q04771); assay: Navigating the Kinome. Panel member name: ACVR1
T3 sequence (Q04771 whole entry): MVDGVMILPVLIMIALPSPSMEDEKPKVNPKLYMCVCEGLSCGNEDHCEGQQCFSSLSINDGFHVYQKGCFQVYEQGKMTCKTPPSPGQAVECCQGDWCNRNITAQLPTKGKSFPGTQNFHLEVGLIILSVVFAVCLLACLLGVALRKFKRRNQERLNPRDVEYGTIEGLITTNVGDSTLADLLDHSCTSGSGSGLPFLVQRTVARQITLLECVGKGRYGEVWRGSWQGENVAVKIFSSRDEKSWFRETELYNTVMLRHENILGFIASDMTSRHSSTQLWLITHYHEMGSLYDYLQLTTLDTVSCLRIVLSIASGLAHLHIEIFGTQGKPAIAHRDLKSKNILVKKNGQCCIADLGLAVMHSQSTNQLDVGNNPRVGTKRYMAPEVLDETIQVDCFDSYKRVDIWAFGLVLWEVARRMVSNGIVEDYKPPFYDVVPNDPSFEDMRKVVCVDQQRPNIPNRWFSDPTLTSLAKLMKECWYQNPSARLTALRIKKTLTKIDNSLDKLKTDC

[11] = molecular target: T4, cAMP-dependent protein kinase catalytic subunit PRKX (Homo sapiens, UniProt P51817)
T4 sequence (P51817 whole entry): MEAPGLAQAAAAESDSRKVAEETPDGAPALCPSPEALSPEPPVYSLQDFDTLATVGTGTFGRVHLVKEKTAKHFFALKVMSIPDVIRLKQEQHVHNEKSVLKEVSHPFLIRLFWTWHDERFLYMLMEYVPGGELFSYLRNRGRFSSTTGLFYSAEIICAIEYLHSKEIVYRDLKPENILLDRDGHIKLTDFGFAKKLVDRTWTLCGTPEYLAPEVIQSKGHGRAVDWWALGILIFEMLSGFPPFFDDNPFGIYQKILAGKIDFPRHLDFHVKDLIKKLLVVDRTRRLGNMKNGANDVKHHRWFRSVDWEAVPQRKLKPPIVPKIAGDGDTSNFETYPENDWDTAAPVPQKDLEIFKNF

[12] = molecular target: Protein kinase C theta type (Homo sapiens, UniProt Q04759); assay: Navigating the Kinome. Panel member name: PRKCQ
[13] = molecular target: High affinity nerve growth factor receptor (Homo sapiens, UniProt P04629);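 also: NTRK1 tested as one member of a kinome-wide profiling panel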
[14] = molecular target: Insulin-like growth factor 1 receptor (Homo sapiens, UniProt P08069); assay: Navigating the Kinome. Panel member name: IGF1R
[15] = molecular target: Glycogen synthase kinase-3 beta (Homo sapiens, UniProt P49841);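 also: value comes from a broad kinome profiling panel, with GSK3B as the panel member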
[16] = molecular target: Tyrosine-protein kinase BTK (Homo sapiens, UniProt Q06187)
[17] = molecular target: Cyclin-dependent kinase 9 (Homo sapiens, UniProt P50750);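 also: value from the CDK9 entry of a kinome-spanning kinase panel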

Chain of Insulin-like growth factor 1 receptor (P08069 31-736 limits assumed): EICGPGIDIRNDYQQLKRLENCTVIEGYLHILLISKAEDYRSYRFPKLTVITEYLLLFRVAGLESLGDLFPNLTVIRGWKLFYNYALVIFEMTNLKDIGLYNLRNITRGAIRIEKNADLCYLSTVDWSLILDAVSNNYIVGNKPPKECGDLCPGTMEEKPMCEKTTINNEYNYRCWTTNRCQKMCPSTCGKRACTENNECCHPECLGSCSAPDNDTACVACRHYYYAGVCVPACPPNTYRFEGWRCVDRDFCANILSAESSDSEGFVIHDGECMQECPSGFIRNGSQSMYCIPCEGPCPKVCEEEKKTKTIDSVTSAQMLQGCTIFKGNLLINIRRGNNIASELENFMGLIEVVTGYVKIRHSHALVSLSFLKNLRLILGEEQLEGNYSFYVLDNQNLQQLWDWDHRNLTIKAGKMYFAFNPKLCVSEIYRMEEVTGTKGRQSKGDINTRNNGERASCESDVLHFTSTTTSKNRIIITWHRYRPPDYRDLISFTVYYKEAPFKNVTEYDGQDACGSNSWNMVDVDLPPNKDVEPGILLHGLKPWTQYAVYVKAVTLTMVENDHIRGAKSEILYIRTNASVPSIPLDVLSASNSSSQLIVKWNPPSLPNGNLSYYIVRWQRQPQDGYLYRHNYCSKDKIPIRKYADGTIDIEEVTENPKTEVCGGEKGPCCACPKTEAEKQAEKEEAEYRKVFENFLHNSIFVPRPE
Chain of Insulin-like growth factor 1 receptor (P08069 741-1367 limits assumed): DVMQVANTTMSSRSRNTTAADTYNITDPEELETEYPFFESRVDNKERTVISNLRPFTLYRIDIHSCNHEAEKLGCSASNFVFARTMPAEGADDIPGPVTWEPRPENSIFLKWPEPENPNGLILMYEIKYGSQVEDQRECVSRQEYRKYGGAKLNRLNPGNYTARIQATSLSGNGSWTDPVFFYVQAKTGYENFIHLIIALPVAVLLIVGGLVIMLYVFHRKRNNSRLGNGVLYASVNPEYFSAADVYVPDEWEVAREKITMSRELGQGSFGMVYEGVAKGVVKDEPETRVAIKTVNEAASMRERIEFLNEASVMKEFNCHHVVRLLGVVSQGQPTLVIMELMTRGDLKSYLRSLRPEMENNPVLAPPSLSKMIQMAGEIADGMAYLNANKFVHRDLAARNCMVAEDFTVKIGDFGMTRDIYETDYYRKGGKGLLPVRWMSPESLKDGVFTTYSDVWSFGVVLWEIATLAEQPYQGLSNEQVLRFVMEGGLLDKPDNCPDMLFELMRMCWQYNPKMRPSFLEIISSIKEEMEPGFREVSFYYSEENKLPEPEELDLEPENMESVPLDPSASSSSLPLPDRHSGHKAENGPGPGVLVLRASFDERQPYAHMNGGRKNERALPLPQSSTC
Chain of Vascular endothelial growth factor receptor 1 (P17948 whole entry): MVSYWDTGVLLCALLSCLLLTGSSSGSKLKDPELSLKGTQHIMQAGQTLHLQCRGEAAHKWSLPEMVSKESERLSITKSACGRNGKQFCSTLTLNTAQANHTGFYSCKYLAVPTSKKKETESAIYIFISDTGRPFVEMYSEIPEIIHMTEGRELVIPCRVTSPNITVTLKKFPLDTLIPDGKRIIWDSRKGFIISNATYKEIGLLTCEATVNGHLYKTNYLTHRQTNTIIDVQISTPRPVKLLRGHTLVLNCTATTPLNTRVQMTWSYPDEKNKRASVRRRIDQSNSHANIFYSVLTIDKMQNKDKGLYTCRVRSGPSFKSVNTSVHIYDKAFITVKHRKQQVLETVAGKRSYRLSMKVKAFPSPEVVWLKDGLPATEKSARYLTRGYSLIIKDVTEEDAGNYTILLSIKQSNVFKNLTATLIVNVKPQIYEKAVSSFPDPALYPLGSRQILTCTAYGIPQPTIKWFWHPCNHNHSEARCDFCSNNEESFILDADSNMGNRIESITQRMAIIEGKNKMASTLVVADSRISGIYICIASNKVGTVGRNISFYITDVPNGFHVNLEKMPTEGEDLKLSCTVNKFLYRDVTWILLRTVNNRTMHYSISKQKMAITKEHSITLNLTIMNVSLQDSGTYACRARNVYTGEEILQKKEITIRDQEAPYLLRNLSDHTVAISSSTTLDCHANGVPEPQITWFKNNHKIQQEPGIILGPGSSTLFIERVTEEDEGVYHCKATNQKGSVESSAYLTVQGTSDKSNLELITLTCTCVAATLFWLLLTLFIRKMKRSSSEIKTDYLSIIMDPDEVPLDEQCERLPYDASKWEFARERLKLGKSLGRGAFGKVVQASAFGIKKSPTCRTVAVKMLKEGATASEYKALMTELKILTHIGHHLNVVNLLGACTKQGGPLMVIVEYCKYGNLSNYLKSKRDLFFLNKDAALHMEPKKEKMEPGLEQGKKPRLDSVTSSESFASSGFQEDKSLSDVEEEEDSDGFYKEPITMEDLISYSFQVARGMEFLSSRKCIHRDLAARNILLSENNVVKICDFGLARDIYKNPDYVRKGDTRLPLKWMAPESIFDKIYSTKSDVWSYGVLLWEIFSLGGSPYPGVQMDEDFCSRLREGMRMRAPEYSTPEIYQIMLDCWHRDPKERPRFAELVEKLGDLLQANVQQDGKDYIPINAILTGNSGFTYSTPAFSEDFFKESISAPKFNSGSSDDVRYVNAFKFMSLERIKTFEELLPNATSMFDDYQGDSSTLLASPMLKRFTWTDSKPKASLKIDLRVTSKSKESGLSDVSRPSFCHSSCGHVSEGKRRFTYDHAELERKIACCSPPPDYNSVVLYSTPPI
Chain of Fibroblast growth factor receptor 1 (P11362 whole entry): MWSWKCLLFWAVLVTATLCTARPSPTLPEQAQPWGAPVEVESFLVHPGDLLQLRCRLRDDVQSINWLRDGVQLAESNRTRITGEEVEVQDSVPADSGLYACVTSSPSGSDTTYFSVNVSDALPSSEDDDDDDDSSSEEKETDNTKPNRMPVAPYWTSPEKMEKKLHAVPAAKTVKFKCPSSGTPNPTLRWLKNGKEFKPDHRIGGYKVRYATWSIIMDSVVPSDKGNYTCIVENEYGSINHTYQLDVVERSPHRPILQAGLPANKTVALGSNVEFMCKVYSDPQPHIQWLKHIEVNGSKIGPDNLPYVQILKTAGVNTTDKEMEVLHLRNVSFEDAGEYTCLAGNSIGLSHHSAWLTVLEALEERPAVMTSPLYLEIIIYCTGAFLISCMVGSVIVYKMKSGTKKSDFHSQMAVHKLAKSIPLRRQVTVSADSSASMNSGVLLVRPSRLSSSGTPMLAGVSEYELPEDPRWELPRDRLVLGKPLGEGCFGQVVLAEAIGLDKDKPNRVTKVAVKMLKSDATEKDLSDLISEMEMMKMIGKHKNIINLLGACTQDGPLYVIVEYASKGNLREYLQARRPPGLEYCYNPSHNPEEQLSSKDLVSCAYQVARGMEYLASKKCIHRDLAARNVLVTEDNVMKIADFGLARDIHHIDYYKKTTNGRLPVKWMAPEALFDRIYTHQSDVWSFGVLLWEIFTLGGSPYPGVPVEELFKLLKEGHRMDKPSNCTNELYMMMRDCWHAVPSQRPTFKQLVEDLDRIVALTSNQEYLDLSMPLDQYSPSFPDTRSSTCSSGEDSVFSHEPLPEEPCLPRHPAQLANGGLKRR
Chain of High affinity nerve growth factor receptor (P04629 whole entry): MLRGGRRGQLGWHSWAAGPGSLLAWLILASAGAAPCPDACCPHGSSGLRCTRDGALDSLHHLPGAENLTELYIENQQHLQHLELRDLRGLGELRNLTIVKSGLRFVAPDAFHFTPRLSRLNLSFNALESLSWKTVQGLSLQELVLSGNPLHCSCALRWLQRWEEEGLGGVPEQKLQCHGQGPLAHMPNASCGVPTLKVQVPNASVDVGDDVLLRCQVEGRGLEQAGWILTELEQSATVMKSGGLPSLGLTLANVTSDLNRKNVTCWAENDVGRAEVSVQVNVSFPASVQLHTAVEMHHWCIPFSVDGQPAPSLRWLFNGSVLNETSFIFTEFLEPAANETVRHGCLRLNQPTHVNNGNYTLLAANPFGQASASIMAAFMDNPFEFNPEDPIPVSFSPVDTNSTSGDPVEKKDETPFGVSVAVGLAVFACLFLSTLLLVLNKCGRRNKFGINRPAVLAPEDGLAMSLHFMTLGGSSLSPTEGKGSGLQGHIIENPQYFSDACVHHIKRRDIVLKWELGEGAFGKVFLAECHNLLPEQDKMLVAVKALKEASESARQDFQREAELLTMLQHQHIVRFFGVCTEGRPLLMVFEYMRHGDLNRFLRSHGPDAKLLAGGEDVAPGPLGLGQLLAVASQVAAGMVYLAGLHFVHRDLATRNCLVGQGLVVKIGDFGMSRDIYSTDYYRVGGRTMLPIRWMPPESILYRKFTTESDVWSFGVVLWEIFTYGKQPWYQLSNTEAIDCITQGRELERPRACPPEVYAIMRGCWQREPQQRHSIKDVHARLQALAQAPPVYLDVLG
Chain of Glycogen synthase kinase-3 beta (P49841 whole entry): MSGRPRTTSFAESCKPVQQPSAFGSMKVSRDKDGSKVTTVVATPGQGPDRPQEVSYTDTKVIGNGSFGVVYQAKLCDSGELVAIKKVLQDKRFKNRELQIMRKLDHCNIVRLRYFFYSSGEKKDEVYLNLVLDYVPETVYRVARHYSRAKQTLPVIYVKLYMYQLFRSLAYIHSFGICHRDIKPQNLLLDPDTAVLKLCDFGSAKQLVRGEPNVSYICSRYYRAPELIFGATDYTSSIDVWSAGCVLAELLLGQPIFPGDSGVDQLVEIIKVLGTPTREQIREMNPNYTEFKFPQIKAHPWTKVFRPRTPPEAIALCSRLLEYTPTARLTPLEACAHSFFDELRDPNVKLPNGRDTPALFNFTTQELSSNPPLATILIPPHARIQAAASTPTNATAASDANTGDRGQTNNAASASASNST

Ki [1]	Ki [2]	Ki [3]	Ki [4]	Ki [5]	Ki [6]	Ki [7]	Ki [9]	Ki [10]	Ki [11]	Ki [12]	Ki [13]	Ki [14]	Ki [15]	Ki [16]	Ki [17]	SMILES	Ki [8]
> 1.58 µM (inactive)	> 3.98 µM (inactive)	> 2.51 µM (inactive)	> 6.31 µM (inactive)	> 3.98 µM (inactive)	> 1.26 µM (inactive)	> 2.51 µM (inactive)	> 3.16 µM (inactive)	> 3.98 µM (inactive)	> 3.16 µM (inactive)	> 2.51 µM (inactive)	> 3.16 µM (inactive)	> 2.51 µM (inactive)	> 3.98 µM (inactive)	> 6.31 µM (inactive)	> 1.58 µM (inactive)	COc1cccc(C(C)NC(=O)c2sc(-c3ccncc3)nc2C)c1 (stereo unspecified)	> 5.01 µM (inactive)
> 1.58 µM (inactive)	> 3.98 µM (inactive)	> 2.51 µM (inactive)	> 6.31 µM (inactive)	> 3.98 µM (inactive)	0.316 µM (active)	> 2.51 µM (inactive)	> 3.16 µM (inactive)	> 3.98 µM (inactive)	> 3.16 µM (inactive)	> 2.51 µM (inactive)	> 3.16 µM (inactive)	> 2.51 µM (inactive)	> 3.98 µM (inactive)	> 6.31 µM (inactive)	> 1.58 µM (inactive)	CCCCC(=O)Nc1cc(-c2c[nH]c3ncccc23)cc(Cl)n1	> 3.16 µM (inactive)
> 1.58 µM (inactive)	> 3.98 µM (inactive)	> 1.58 µM (inactive)	> 6.31 µM (inactive)	> 3.98 µM (inactive)	1 µM (active)	> 2 µM (inactive)	> 3.16 µM (inactive)	> 3.16 µM (inactive)	> 3.16 µM (inactive)	> 2.51 µM (inactive)	> 3.16 µM (inactive)	1.26 µM (active)	> 2.51 µM (inactive)	> 6.31 µM (inactive)	> 1.58 µM (inactive)	Oc1ccc(-c2nc(-c3ccncc3)c(-c3ccc(F)cc3)[nH]2)cc1 [SB-202190]	> 5.01 µM (inactive)
